# According to ChEMBL document CHEMBL5532680, “Identification of a Sonically Activated Degrader of Methionine Adenosyltransferase 2A by an in Silico Approach Assisted with the Hole-Electron Analysis” (J Med Chem, 2024):
# The source made the active and inactive calls. The calls are words filed in the database; no cut-off is given here.
# What was measured:
# [1] = Inhibition of uridine glucuronyl transferase (unknown origin); parameters: species or system Homo sapiens
# [2] = AUC in ICR mouse at 1 mg/kg, iv measured upto 24 hrs by LC-MS/MS analysis; assay type: ADME, organism-based; conditions: in vivo
# [3] = Biodistribution in […] knocked out human HCT-116 cells xenografted in BALB/c mouse assessed as fluorescence intensity in kidney at 10 mg/kg, po measured after 24 hrs; assay type: ADME, organism-based; conditions: in vivo
# HCT-116 [4] = test: Antitumor activity against […] knocked out human HCT-116 cells xenografted in BALB/c mouse assessed as reduction in tumor weight at 10 mg/kg, po administered once a day followed by 4 mins sonication post 6 hrs of compound administration and measured for 3 weeks; assay type: functional, organism-based
# [5] = Oral bioavailability in BALB/c mouse at 10 mg/kg measured upto 24 hrs by LC-MS/MS analysis; assay type: ADME, organism-based; conditions: in vivo
# HCT-116 [6] = test: Antiproliferative activity against wild type human HCT-116 cells preincubated with AG-270 followed by compound addition; assay type: functional, cell-based
# [7] = target: T1, S-adenosylmethionine synthase isoform type-2 (Homo sapiens, UniProt P31153); test: Induction of MAT2A degradation in human HCT-116 cells preincubated for 4 hrs followed by 1.0 MHz, 0.8W/cm2 ultrasound treatment for 0.5 mins by Western blotting assay; assay type: cell-based
# Target sequence in this assay (P31153 whole entry, canonical isoform): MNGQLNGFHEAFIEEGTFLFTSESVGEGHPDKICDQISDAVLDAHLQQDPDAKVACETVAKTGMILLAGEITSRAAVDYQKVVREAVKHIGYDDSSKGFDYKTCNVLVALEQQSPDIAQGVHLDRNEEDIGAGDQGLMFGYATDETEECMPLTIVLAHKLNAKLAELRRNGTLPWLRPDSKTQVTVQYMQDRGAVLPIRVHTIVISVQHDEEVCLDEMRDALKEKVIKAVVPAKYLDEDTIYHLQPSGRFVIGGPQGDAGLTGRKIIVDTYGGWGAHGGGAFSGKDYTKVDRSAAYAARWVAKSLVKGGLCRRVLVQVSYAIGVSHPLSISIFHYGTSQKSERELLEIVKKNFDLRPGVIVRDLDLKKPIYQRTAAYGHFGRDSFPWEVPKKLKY
# [8] = target: T1, S-adenosylmethionine synthase isoform type-2; test: Induction of MAT2A degradation in human HCT-116 cells assessed as MAT2A level at 0.1 uM preincubated for 4 hrs followed by 1.0 MHz, 0.8W/cm2 ultrasound treatment for 4 mins and measured upto 24 hrs by Western blotting assay; assay type: cell-based; conditions: time <= 1684.0 min
# Target sequence in this assay (P31153 whole entry, looked up, canonical isoform): as the sequence (P31153 whole entry, canonical isoform) above
# [9] = Toxicity in BALB/c mouse xenografted with human HCT-116 cells assessed as liver damage at 10 mg/kg, po by H and E staining based assay; assay type: organism-based; conditions: in vivo
# [10] = Half-life in ICR mouse at 1 mg/kg, iv measured upto 24 hrs by LC-MS/MS analysis; assay type: ADME, organism-based; conditions: in vivo
# HCT-116 [11] = test: Antitumor activity against […] knocked out human HCT-116 cells xenografted in BALB/c mouse assessed as tumor growth inhibition at 10 mg/kg, po administered once a day followed by 4 mins sonication post 6 hrs of compound administration and measured for 3 weeks; assay type: functional; conditions: HCT-116, 504 h, read-out: TGI
# HCT-116 [12] = test: Induction of apoptosis in MTAP knocked out human HCT-116 cells at 0.1 uM preincubated for 24 hrs followed by sonication for 4 mins by annexin V-FITC/PI staining based flow cytometry analysis relative to control; assay type: functional, cell-based; conditions: time 1444.0 min
# HCT-116 [13] = test: Antitumor activity against […] knocked out human HCT-116 cells xenografted in BALB/c mouse assessed as tumor regression at 10 mg/kg, po administered once a day followed by 4 mins sonication post 6 hrs of compound administration and measured for 3 weeks; assay type: functional
# HCT-116 [14] = test: Antiproliferative activity against wild type human HCT-116 cells assessed as cell viability at 10 uM under 4 mins sonication; assay type: functional; conditions: HCT-116, 4 min, read-out: Activity
# [15] = Apparent permeability in MDCKII-MDR1 cells; assay type: ADME, cell-based, Canis lupus familiaris; conditions: dog, MDCK-MDR1
# [16] = target: T1, S-adenosylmethionine synthase isoform type-2; test: Induction of MAT2A degradation in human HCT-116 cells assessed as MAT2A level at 0.1 uM preincubated for 4 hrs followed by 1.0 MHz, 0.8W/cm2 ultrasound treatment for 4 mins by Western blotting assay; assay type: cell-based; conditions: time 244.0 min
# Target sequence in this assay (P31153 whole entry, looked up, canonical isoform): as the sequence (P31153 whole entry, canonical isoform) above
# HCT-116 [17] = test: Antiproliferative activity against MTAP knocked out human HCT-116 cells incubated for 5 days by MTT method relative to control; assay type: functional; conditions: time 5 day
# [18] = Toxicity in BALB/c mouse xenografted with human HCT-116 cells assessed as lung damage at 100 mg/kg, po by H and E staining based assay; assay type: organism-based; conditions: in vivo
# [19] = Volume of distribution at steady state in ICR mouse at 1 mg/kg, iv measured upto 24 hrs by LC-MS/MS analysis; assay type: ADME, organism-based; conditions: in vivo, read-out: Vdss
# HCT-116 [20] = test: Induction of ROS generation in human HCT-116 cells at 0.001 to 1 uM incubated for 6 hrs by DCFH-DA staining based flow cytometry analysis; assay type: functional, cell-based; conditions: dose 0.001-1 µM
# [21] = Toxicity in BALB/c mouse xenografted with human HCT-116 cells assessed as inflammatory cells infiltration at 50 mg/kg, po by H and E staining based assay; assay type: organism-based; conditions: in vivo
# [22] = Toxicity in BALB/c mouse xenografted with human HCT-116 cells assessed as change in liver cell nucleus shape at 100 mg/kg, po by H and E staining based assay; assay type: organism-based; conditions: in vivo
# HCT-116 [23] = test: Antiproliferative activity against MTAP knocked out human HCT-116 cells under 4 mins sonication; assay type: functional, cell-based; conditions: HCT-116, 4 min
# [24] = Toxicity in BALB/c mouse xenografted with human HCT-116 cells assessed as spleen damage at 10 mg/kg, po by H and E staining based assay; assay type: organism-based; conditions: in vivo
# [25] = Toxicity in BALB/c mouse xenografted with human HCT-116 cells assessed as liver tissue rupture at 50 mg/kg, po by H and E staining based assay; assay type: organism-based; conditions: in vivo
# MDR1 (P-gp) = test: Efflux ratio of apparent permeability in MDCKII-MDR1 cells; assay type: ADME, cell-based, Canis lupus familiaris; conditions: dog, MDCK-MDR1
# Cytochrome P450 1A2 = target: T2, Cytochrome P450 1A2 (Homo sapiens, UniProt P05177); test: Inhibition of CYP1A2 (unknown origin); assay type: ADME
# T2 sequence (P05177 whole entry): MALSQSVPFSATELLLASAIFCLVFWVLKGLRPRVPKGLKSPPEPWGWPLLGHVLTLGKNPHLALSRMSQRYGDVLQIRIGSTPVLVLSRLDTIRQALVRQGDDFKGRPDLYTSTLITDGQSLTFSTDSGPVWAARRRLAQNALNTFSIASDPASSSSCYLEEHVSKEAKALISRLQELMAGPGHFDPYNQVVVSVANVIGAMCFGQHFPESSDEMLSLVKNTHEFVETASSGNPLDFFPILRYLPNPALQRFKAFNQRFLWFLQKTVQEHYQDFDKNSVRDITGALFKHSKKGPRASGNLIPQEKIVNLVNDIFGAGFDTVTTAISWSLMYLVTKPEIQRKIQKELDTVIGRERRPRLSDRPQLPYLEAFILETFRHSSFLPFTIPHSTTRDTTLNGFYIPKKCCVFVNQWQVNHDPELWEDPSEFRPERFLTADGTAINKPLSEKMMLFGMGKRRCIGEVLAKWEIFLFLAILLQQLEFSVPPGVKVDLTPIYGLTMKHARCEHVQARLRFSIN
# [26] = Biodistribution in MATP knocked out human HCT-116 cells xenografted in BALB/c mouse assessed as fluorescence intensity in lung at 10 mg/kg, po measured after 24 hrs; assay type: ADME, organism-based; conditions: in vivo
# [27] = target: Voltage-gated inwardly rectifying potassium channel KCNH2 (Homo sapiens, UniProt Q12809); test: Inhibition of hERG by plate based patch clamp method; assay type: toxicity
# [28] = Cmax in BALB/c mouse at 10 mg/kg, po measured upto 24 hrs by LC-MS/MS analysis; assay type: ADME, organism-based; conditions: in vivo
# [29] = AUC in ICR mouse at 10 mg/kg, po measured upto 24 hrs by LC-MS/MS analysis; assay type: ADME, organism-based; conditions: in vivo
# HCT-116 [30] = test: Antiproliferative activity against MTAP knocked out human HCT-116 cells under 1 min sonication; assay type: functional, cell-based; conditions: HCT-116, 1 min
# [31] = AUC(0 to 24 hrs) in BALB/c mouse at 10 mg/kg, po measured upto 24 hrs by LC-MS/MS analysis; assay type: ADME, organism-based; conditions: in vivo
# Chain of Voltage-gated inwardly rectifying potassium channel KCNH2 (Q12809 whole entry): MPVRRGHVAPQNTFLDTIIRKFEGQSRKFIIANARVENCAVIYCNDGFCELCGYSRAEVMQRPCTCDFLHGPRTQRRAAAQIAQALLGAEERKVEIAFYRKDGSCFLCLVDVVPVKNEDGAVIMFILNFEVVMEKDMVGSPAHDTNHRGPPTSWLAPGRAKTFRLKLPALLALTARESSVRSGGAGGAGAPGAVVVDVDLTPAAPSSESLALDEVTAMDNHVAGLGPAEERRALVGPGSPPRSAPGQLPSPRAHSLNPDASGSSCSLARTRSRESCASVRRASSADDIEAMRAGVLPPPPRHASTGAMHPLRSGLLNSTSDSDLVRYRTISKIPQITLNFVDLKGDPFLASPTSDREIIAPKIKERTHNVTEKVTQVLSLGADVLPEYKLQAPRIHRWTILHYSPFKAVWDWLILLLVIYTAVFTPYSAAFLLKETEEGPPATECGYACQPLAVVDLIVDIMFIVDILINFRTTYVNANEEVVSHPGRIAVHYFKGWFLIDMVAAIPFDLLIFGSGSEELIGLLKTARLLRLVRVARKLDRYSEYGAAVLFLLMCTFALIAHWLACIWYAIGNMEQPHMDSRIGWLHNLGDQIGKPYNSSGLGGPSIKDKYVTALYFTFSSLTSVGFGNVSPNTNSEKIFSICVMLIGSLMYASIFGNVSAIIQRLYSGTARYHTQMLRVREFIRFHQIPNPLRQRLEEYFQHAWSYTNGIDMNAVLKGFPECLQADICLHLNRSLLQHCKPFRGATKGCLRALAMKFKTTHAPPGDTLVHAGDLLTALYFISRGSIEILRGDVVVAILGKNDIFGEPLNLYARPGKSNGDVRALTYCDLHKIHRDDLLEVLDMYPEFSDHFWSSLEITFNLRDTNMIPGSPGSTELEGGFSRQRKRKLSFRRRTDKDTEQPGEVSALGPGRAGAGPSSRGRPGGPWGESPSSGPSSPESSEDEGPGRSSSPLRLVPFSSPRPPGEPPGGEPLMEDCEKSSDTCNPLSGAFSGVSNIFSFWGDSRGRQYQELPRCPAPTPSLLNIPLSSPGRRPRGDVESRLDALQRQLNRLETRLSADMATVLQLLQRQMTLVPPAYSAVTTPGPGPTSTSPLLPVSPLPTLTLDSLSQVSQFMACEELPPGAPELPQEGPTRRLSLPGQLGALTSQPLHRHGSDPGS
compound,measurement,setting,value
CCOc1ncc2cc(-c3ccc4c(c3)N3CCCC3CO4)c(=O)n(-c3ccc(OC(F)F)cc3)c2n1 (stereo not drawn),IC50,[1],800 nM
same,AUC,[2],1267 ng·h/mL
same,Drug uptake,[3],Not Active
same,Activity,HCT-116 [4],Active
same,F,[5],77%
same,Activity,HCT-116 [6],inactive
same,EC50,[7],360 nM
same,Activity,[8],Active
same,Activity,[9],Non-Toxic
same,half-life,[10],1.6 h
same,inhibition in vivo at 10 mg/kg,HCT-116 [11],103%
same,Activity,HCT-116 [12],Active
same,Activity,HCT-116 [13],31%
same,viability at 10 µM,HCT-116 [14],77%
same,Papp,[15],13.4 ×10⁻⁶ cm/s
same,Activity,[16],13%
same,Activity,HCT-116 [17],92%
same,Activity,[18],Non-Toxic
same,Vd,[19],3.47 L/kg
same,Activity,HCT-116 [20],Active
same,Activity,[21],Toxic
same,Activity,[22],Toxic
same,IC50,HCT-116 [23],42 nM
same,Activity,[24],Non-Toxic
same,Activity,[25],Toxic
same,efflux ratio,MDR1 (P-gp),0.9
same,IC50,Cytochrome P450 1A2,> 50000 nM
same,Drug uptake,[26],Active
same,IC50,[27],> 50000 nM
same,Cmax,[28],1380 ng/mL
same,AUC at 24 h,[29],9710 ng·h/mL
same,IC50,HCT-116 [30],79 nM
same,AUC,[31],9714 ng·h/mL
